Values of other authors in patent US20110293690A1, “Biodegradable Polymer Encapsulated Microsphere Particulate Film and Method of Making Thereof” (Tyco Healthcare Group LP, priority 2010, published 2011).
Where a name gives a salt, the structure may show the parent alone. Read-outs that look alike come from different tables or passages of the source.

Tests used:
[1] = in water, stated in words

pKa	aqueous solubility ([1]; listed as free base form of bupivacaine)	aqueous solubility ([1]; hydrochloride)	SMILES
about 8.1	lower aqueous solubility	–	CCCCN1CCCCC1C(=O)Nc1c(C)cccc1C (stereo not drawn) [Bupivacaine, bupivacaine]
–	–	soluble in water	CCCCN1CCCCC1C(=O)Nc1c(C)cccc1C (stereo not drawn) [salt form of bupivacaine, bupivacaine hydrochloride]
